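Abbreviation: GI50, concentration required for 50% inhibition of growth. TGI marks complete inhibition of growth.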
Legend:
Assay in all cases: inhibition of tumour cell growth, NCI panel, 384-well format
KM12 colon = tested on: KM12 colon
SNB-19 CNS = tested on: SNB-19 CNS
HCT-15 colon = tested on: HCT-15 colon
BT-549 breast = tested on: BT-549 breast
MDA-MB-468 breast = tested on: MDA-MB-468 breast
RXF 393 renal = tested on: RXF 393 renal
HL-60(TB) leukemia = tested on: HL-60(TB) leukemia
NCI-H23 lung = tested on: NCI-H23 lung
OVCAR-8 ovarian = tested on: OVCAR-8 ovarian
HS 578T breast = tested on: HS 578T breast
MCF7 breast = tested on: MCF7 breast
NCI-H522 lung = tested on: NCI-H522 lung
UO-31 renal = tested on: UO-31 renal
COLO 205 colon = tested on: COLO 205 colon
MOLT-4 leukemia = tested on: MOLT-4 leukemia
K-562 leukemia = tested on: K-562 leukemia
HOP-92 NSCLC = tested on: HOP-92 NSCLC
SK-MEL-28 melanoma = tested on: SK-MEL-28 melanoma
SF-295 CNS = tested on: SF-295 CNS
NCI-H226 lung = tested on: NCI-H226 lung
UACC-62 melanoma = tested on: UACC-62 melanoma
SK-MEL-2 melanoma = tested on: SK-MEL-2 melanoma
HOP-62 NSCLC = tested on: HOP-62 NSCLC
T-47D breast = tested on: T-47D breast
SNB-75 CNS = tested on: SNB-75 CNS
TK-10 renal = tested on: TK-10 renal
MALME-3M melanoma = tested on: MALME-3M melanoma
DU-145 prostate = tested on: DU-145 prostate
U251 glioblastoma = tested on: U251 glioblastoma
SN12C renal = tested on: SN12C renal
RPMI-8226 leukemia = tested on: RPMI-8226 leukemia
SK-MEL-5 melanoma = tested on: SK-MEL-5 melanoma
IGROV1 ovarian = tested on: IGROV1 ovarian
SK-OV-3 ovarian = tested on: SK-OV-3 ovarian
UACC-257 melanoma = tested on: UACC-257 melanoma
A498 renal = tested on: A498 renal
NCI/ADR-RES ovarian = tested on: NCI/ADR-RES ovarian
NCI-H460 NSCLC = tested on: NCI-H460 NSCLC
MDA-MB-231 breast = tested on: MDA-MB-231 breast
EKVX NSCLC = tested on: EKVX NSCLC
M14 melanoma = tested on: M14 melanoma
OVCAR-4 ovarian = tested on: OVCAR-4 ovarian
OVCAR-3 ovarian = tested on: OVCAR-3 ovarian
HCC-2998 colon = tested on: HCC-2998 colon
SR leukemia = tested on: SR leukemia
OVCAR-5 ovarian = tested on: OVCAR-5 ovarian
HCT-116 colon = tested on: HCT-116 colon

## NC(=O)[C@@H](CC1CC1)[C@@H](CCC(F)(F)F)C(=O)N[C@H]1N=C(c2ccccc2)c2cccc(F)c2NC1=O
KM12 colon
  GI50: > 51.9 µM
  TGI: > 100 µM
SNB-19 CNS
  GI50: 14.7 µM
  TGI: 28.9 µM
HCT-15 colon
  GI50: > 65.9 µM
  TGI: > 100 µM
BT-549 breast
  GI50: 17.8 µM
  TGI: 35.2 µM
MDA-MB-468 breast
  TGI: 2.52 µM
RXF 393 renal
  GI50: 7.3 µM
  TGI: 22.6 µM
HL-60(TB) leukemia
  GI50: 29.7 µM
  TGI: > 100 µM
NCI-H23 lung
  GI50: 9.77 µM
  TGI: 30 µM
OVCAR-8 ovarian
  GI50: 16 µM
  TGI: 33.5 µM
HS 578T breast
  GI50: 11.3 µM
  TGI: 25.5 µM
MCF7 breast
  GI50: 14.6 µM
  TGI: 29.1 µM
NCI-H522 lung
  GI50: 15.2 µM
  TGI: 30.5 µM
UO-31 renal
  GI50: 17.6 µM
  TGI: 69.1 µM
COLO 205 colon
  GI50: > 38.8 µM
  TGI: > 60.3 µM
MOLT-4 leukemia
  GI50: 7.38 µM
  TGI: 35 µM
K-562 leukemia
  GI50: 7.18 µM
  TGI: 62.6 µM
HOP-92 NSCLC
  GI50: 15.5 µM
  TGI: 29.6 µM
SK-MEL-28 melanoma
  GI50: 17.8 µM
  TGI: 33.2 µM
SF-295 CNS
  GI50: 17.8 µM
  TGI: 37.2 µM
NCI-H226 lung
  GI50: 16.5 µM
  TGI: 30.5 µM
UACC-62 melanoma
  GI50: 14.7 µM
  TGI: 28.7 µM
SK-MEL-2 melanoma
  GI50: 19.7 µM
  TGI: 35.2 µM
HOP-62 NSCLC
  GI50: 8.29 µM
  TGI: 25 µM
T-47D breast
  GI50: 1.94 µM
  TGI: 17.7 µM
SNB-75 CNS
  GI50: 10.7 µM
  TGI: 25.4 µM
TK-10 renal
  GI50: 16.5 µM
  TGI: 33 µM
MALME-3M melanoma
  GI50: 14.8 µM
  TGI: 28.2 µM
DU-145 prostate
  GI50: 23.7 µM
  TGI: 66.6 µM
U251 glioblastoma
  GI50: 17.7 µM
  TGI: 34 µM
SN12C renal
  GI50: 16.2 µM
  TGI: 31.2 µM
RPMI-8226 leukemia
  GI50: 16.2 µM
  TGI: 36.2 µM
SK-MEL-5 melanoma
  GI50: 9.41 µM
  TGI: 24.1 µM
IGROV1 ovarian
  GI50: 16.1 µM
  TGI: 40.4 µM
SK-OV-3 ovarian
  GI50: 14.9 µM
  TGI: 28.5 µM
UACC-257 melanoma
  GI50: 5.76 µM
  TGI: 24.6 µM
A498 renal
  GI50: 15 µM
  TGI: 43 µM
NCI/ADR-RES ovarian
  GI50: > 86.4 µM
  TGI: > 100 µM
NCI-H460 NSCLC
  GI50: 11.6 µM
  TGI: > 48.4 µM
MDA-MB-231 breast
  GI50: 14.4 µM
  TGI: 28 µM
EKVX NSCLC
  GI50: 7.61 µM
  TGI: 32 µM
M14 melanoma
  GI50: 18.5 µM
  TGI: 43.3 µM
OVCAR-4 ovarian
  GI50: 13.3 µM
  TGI: 28.1 µM
OVCAR-3 ovarian
  GI50: 14.4 µM
  TGI: 29 µM
HCC-2998 colon
  GI50: 23.8 µM
  TGI: 84.3 µM
SR leukemia
  GI50: 13.9 µM
  TGI: 27.1 µM
OVCAR-5 ovarian
  GI50: 18.5 µM
  TGI: 47.1 µM
HCT-116 colon
  GI50: 10.5 µM
  TGI: 26.1 µM

From PubChem BioAssay (NCI)
